For one test, the system named is S. ferus DSM 20646. In words: Culture growth upon treatment with 100 nM antibiotic. It is filed as cell-based, Streptococcus ferus. Also on record: key: “−” indicates not inhibited; “+” indicates mildly inhibited; “++” indicates inhibited. The procedure: (§1) Other streptococcal species have similar dose-dependent growth inhibitory responses to tryglysins. WGK peptides inhibit growth of several streptococcal species, but not E. faecalis or L. lactis. We extended the evaluation of tryglysin inhibitory activity to other bacterial species. Culture growth rates of several Gram-positive species were evaluated upon treatment with 100 nM each antibiotic. Most susceptible to treatments, with complete growth inhibition at only 100 nM tryglysins, were strains of S. mitis, S. oralis, and S. pneumoniae, each being members of the mitis group. […] Unaffected were cultures of S. pyogenes, Lactococcus lactis, and Enterococcus faecalis (FIG. S4A to F).
(§2) It can also be seen that the disclosed peptides inhibit growth of several streptococcal species, but not others outside of streptococcal species, such as E. faecalis or L. lactis.
(§3) Specifically, bacterial strains were grown from prestored glycerol stocks at −80° C. and inoculated into THY broth. Strains were incubated overnight at 37° C. in an atmosphere of 5% CO2, and the next morning, they were washed and resuspended in fresh, prewarmed CDM as described above in Example 4.

The subject of another test is S. oralis 108. The test is described as above. Also on record: key: “−” indicates not inhibited; “+” indicates mildly inhibited; “++” indicates inhibited. It is filed as cell-based, Streptococcus oralis. Here is the method:
as §1, §2, §3

Another test concerns S. gordonii Challis Bt. Described as above. It is filed as cell-based, Streptococcus gordonii. More on the design: key: “−” indicates not inhibited; “+” indicates mildly inhibited; “++” indicates inhibited. Here is the method: as §1, §2, §3
Test [1] has as its system S. mutans. Put plainly: Morphological changes (cell chaining) by microscopy after tryglysin treatment. It is filed as cell-based, Streptococcus mutans. Conditions: 100 nM. The procedure: FIG. 4 is a graph showing the quantification of chains greater than three cells in length for S. mutans exposed to 100 nM tryglysin A for 2 h, 5 h, or 7 h. A minimum of 100 cells were observed per condition and time point. −, no tryglysin A; +, 100 nM tryglysin A. **, P<0.01; ns, not significant by one-way ANOVA with Dunnet's multiple comparison posttest.
The impact of tryglysins on gross morphological changes to cell shape was examined at 2, 5, and 7 h after treatment with 100 nM tryglysin A or B by microscopy.
Prestored glycerol stocks of S. mutans strains at −80° C. were inoculated into THY broth and incubated overnight at 37° C. in an atmosphere of 5% CO2. CDM was prepared and prewarmed at 37° C. in an atmosphere of 5% CO2 overnight. The next morning, strains were transferred to sterile 15-ml conical tubes and centrifuged at room temperature at 4,000×g for 10 min. Strains were resuspended in 1 ml prewarmed CDM, transferred to microcentrifuge tubes, and centrifuged again at room temperature at 14,000×g for 5 min. Supernatant was discarded, and strains were resuspended in 1 ml fresh prewarmed CDM. Resuspended strains were then inoculated into 6 ml prewarmed CDM at 1:200 dilution. At each time point, strains were monitored by measuring OD600 with a GENESYS 30 Vis spectrophotometer (Thermo-Fisher)
If required, at 1 h postinoculation, 100 nM tryglysin A or B was added to the media. For microscopic analysis of samples, 2 ml of live cells was taken at 2 h, 5 h, and 7 h after the addition of tryglysins and examined using an Olympus CKX53 inverted microscope with a 40× LCACHN-iPC infinity objective (LCACHN40XIPC; numerical aperture, 0.55) connected to a SC50 camera (Olympus). Images were processed using Olympus Stream Image Analysis software (Olympus).

Test [2] concerns S. mutans. Put plainly: Dose-dependent growth inhibition of cultures with tryglysin titrations over 9 hours. In kind it is cell-based, Streptococcus mutans. Here is the method: (§4) Growth inhibition of S. mutans and S. ferus cultures was tested with titrations of both tryglysin A and B over a period of 9 hours.
Referring to FIG. 3A, the dose-dependent growth inhibition of S. mutans by Triglysin A can be seen. Cultures exposed to no tryglysin A 301, 10 nM tryglysin A 302, 100 nM tryglysin A 303, and 1 μM tryglysin A 304 can be seen.
Referring to FIG. 3C, the dose-dependent growth inhibition of S. mutans by Triglysin B can be seen. Cultures exposed to no tryglysin B 321, 10 nM tryglysin B 322, 100 nM tryglysin B 323, and 1 μM tryglysin B 324 can be seen.

For a further test, the system named is S. ferus. The description is as above. Conditions: 9-h growth assay. In kind it is cell-based, Streptococcus ferus. The procedure:
as §4
Referring to FIG. 3B, the dose-dependent growth inhibition of S. ferus by Triglysin A can be seen. Cultures exposed to no tryglysin A 311, 10 nM tryglysin A 312, and 100 nM tryglysin A 313 can be seen.
Referring to FIG. 3D, the dose-dependent growth inhibition of S. ferus by Triglysin B can be seen. Cultures exposed to no tryglysin B 331, 10 nM tryglysin B 332, and 100 nM tryglysin B 333 can be seen.

Another test concerns L. lactis ATCC 11454. Put plainly: Culture growth upon treatment with 100 nM antibiotic. It is filed as cell-based, Lactococcus lactis. More on the design: key: “−” indicates not inhibited; “+” indicates mildly inhibited; “++” indicates inhibited. Here is the method: as §1, §2, §3
The test system of a further test is S. mutans UA159. Described as above. It is filed as cell-based, Streptococcus mutans. More on the design: key: “−” indicates not inhibited; “+” indicates mildly inhibited; “++” indicates inhibited. Here is the method:
as §1, §2, §3

Another test relates to S. sanguinis ATCC 10556. Described as above. In kind it is cell-based, Streptococcus sanguinis. Also on record: key to Inhibition By (S. sanguinis ATCC 10556): “−” indicates not inhibited; “+” indicates mildly inhibited; “++” indicates inhibited. The procedure: as §1, §2, §3
A further test relates to S. pneumoniae D39. Described as above. It is filed as cell-based, Streptococcus pneumoniae. Also on record: key: “−” indicates not inhibited; “+” indicates mildly inhibited; “++” indicates inhibited. The procedure:
as §1, §2, §3

The next test concerns S. bovis JB1. The test is described as above. More on the design: key to Inhibition By (S. bovis JB1): “−” indicates not inhibited; “+” indicates mildly inhibited; “++” indicates inhibited. In kind it is cell-based, Streptococcus bovis. The procedure: as §1, §2, §3
The next test deals with S. pyogenes NZ131. The description is as above. In kind it is cell-based, Streptococcus pyogenes. Also on record: key: “−” indicates not inhibited; “+” indicates mildly inhibited; “++” indicates inhibited. The procedure: as §1, §2, §3
The subject of a further test is S. mitis CCUG 31611. Described as above. It is filed as cell-based, Streptococcus mitis. Also on record: key: “−” indicates not inhibited; “+” indicates mildly inhibited; “++” indicates inhibited. Here is the method: as §1, §2, §3
Another test concerns E. faecalis V583. The description is as above. In kind it is cell-based, Enterococcus faecalis. Also on record: key: “−” indicates not inhibited; “+” indicates mildly inhibited; “++” indicates inhibited. The procedure: as §1, §2, §3
In the next test the test system is S. agalactiae A909. The test is described as above. Also on record: key to Inhibition By (S. agalactiae A909): “−” indicates not inhibited; “+” indicates mildly inhibited; “++” indicates inhibited. It is filed as cell-based, Streptococcus agalactiae. The procedure: as §1, §2, §3
Setting [3] is: to a lower degree than for S. agalactiae.

Where no end group is shown, it is not given here.

In the case of “Tryglysin A (VNSWGKH; bridge (positions not given here); also: macrocyclic, tetrahydro[5,6]benzindole modification, places not given here)”, the “Inhibition By (S. ferus DSM 20646)” value in the test with S. ferus DSM 20646 was “++”. Moreover, the “Inhibition By (S. oralis 108)” value with S. oralis 108 was “++”. The “Inhibition By (S. gordonii Challis Bt)” value in the test with S. gordonii Challis Bt was “+”. The “chaining of S. mutans cells (chains greater than three cells in length)” value with S. mutans [1] (5 h after addition) and in the test with S. mutans [1] (7 h after addition) was “significantly increased” in each case. The “growth inhibition of S. mutans” value was “Significant growth inhibition” with S. mutans [2] (10 nM, 9-h growth assay); “further inhibition” in the test with S. mutans [2] (100 nM, 9-h growth assay); “further inhibition” with S. mutans [2] (1 μM, 9-h growth assay). For the same substance, the “growth inhibition of S. ferus” value is recorded as “Significant growth inhibition” in the test on S. ferus (10 nM) and “complete inhibition” in the test on S. ferus (100 nM). The “Inhibition By (L. lactis ATCC 11454)” value with L. lactis ATCC 11454 is “−”. For the same substance, the “Inhibition By (S. mutans UA159)” value in the test with S. mutans UA159 is recorded as “++”. The “Inhibition By (S. sanguinis ATCC 10556)” value with S. sanguinis ATCC 10556 was “++”. The “inhibitory activity against S. sanguinis compared with variant B” value in the test on S. sanguinis ATCC 10556 (setting [3]) is listed as “greater inhibitory activity”. Moreover, the “Inhibition By (S. pneumoniae D39)” value with S. pneumoniae D39 was “++”. Moreover, the “Inhibition By (S. bovis JB1)” value in the test with S. bovis JB1 was “+”. Besides, in the test on S. bovis JB1 (setting [3]), the “inhibitory activity against S. bovis compared with variant B” value was “greater inhibitory activity”. Further, the “Inhibition By (S. pyogenes NZ131)” value in the test on S. pyogenes NZ131 was “−”. In addition, the “Inhibition By (S. mitis CCUG 31611)” value in the test on S. mitis CCUG 31611 was “++”. Further, in the test on E. faecalis V583, the “Inhibition By (E. faecalis V583)” value is listed as “−”. Further, in the test with S. agalactiae A909, the “Inhibition By (S. agalactiae A909)” value is reported as “++”. For the same substance, in the test with S. agalactiae A909, the “inhibitory activity against S. agalactiae compared with variant B” value is “greater inhibitory activity”.
As for “Tryglysin B (VNCWGKH; bridge (positions not given here); also: macrocyclic, tetrahydro[5,6]benzindole modification, places not given here; listed as Streptococcus ferus)”, the “Inhibition By (S. ferus DSM 20646)” value with S. ferus DSM 20646 was “++”. In addition, the “Inhibition By (S. oralis 108)” value in the test with S. oralis 108 is reported as “++”. Besides, the “Inhibition By (S. gordonii Challis Bt)” value in the test with S. gordonii Challis Bt was “+”. Moreover, the “chaining of S. mutans cells (chains greater than three cells in length)” value in the test on S. mutans [1] (5 h after addition) and in the test with S. mutans [1] (7 h after addition) was “appeared to do the same” throughout. Also, the “growth inhibition of S. mutans” value in the test on S. mutans [2] (10 nM, 9-h growth assay) was “some inhibition”. Also, the “concentration required for significant growth inhibition of S. mutans” value with S. mutans [2] (9-h growth assay) is on record as “at least 100 nM”. Besides, in the test on S. mutans [2] (over the 9-h growth assay), the “concentration required for S. mutans to be completely inhibited” value stood at 1 µM. In addition, the entries for the “growth inhibition of S. ferus” value with S. ferus (10 nM) and in the test with S. ferus (100 nM) were “minimal inhibition” and “compete inhibition”, respectively. Moreover, the “Inhibition By (L. lactis ATCC 11454)” value with L. lactis ATCC 11454 is on record as “−”. Also, in the test with S. mutans UA159, the “Inhibition By (S. mutans UA159)” value is recorded as “++”. For the same substance, the “Inhibition By (S. sanguinis ATCC 10556)” value with S. sanguinis ATCC 10556 is given as “++”. The “Inhibition By (S. pneumoniae D39)” value in the test with S. pneumoniae D39 was “++”. In addition, the “Inhibition By (S. bovis JB1)” value in the test with S. bovis JB1 is reported as “+”. Further, the “Inhibition By (S. pyogenes NZ131)” value in the test with S. pyogenes NZ131 was “−”. Moreover, the “Inhibition By (S. mitis CCUG 31611)” value with S. mitis CCUG 31611 is given as “++”. In the test on E. faecalis V583, the “Inhibition By (E. faecalis V583)” value is given as “−”. Besides, in the test with S. agalactiae A909, the “Inhibition By (S. agalactiae A909)” value is “+”.
